According to ChEMBL document CHEMBL3864167, “Structure-Activity Relationship, Drug Metabolism and Pharmacokinetics Properties Optimization, and in Vivo Studies of New Brain Penetrant Triple T-Type Calcium Channel Blockers” (J Med Chem, 2016):
In brackets after ≈: the same amount, converted by molar mass.

What was measured:
[1] = Solubility of the compound at pH 7; type: physicochemical; settings: buffer
[2] = target: Voltage-dependent T-type calcium channel subunit alpha-1G (Homo sapiens, UniProt O43497); experiment: Channel blocking activity at recombinant human CaV 3.1 channel expressed in HEK293 cells assessed as inhibition of Ca2+ flux preincubated for 3 mins followed by CaCl2 addition by fluo-4 dye-based FLIPR assay; type: cell-based
Chain of Voltage-dependent T-type calcium channel subunit alpha-1G (O43497 whole entry): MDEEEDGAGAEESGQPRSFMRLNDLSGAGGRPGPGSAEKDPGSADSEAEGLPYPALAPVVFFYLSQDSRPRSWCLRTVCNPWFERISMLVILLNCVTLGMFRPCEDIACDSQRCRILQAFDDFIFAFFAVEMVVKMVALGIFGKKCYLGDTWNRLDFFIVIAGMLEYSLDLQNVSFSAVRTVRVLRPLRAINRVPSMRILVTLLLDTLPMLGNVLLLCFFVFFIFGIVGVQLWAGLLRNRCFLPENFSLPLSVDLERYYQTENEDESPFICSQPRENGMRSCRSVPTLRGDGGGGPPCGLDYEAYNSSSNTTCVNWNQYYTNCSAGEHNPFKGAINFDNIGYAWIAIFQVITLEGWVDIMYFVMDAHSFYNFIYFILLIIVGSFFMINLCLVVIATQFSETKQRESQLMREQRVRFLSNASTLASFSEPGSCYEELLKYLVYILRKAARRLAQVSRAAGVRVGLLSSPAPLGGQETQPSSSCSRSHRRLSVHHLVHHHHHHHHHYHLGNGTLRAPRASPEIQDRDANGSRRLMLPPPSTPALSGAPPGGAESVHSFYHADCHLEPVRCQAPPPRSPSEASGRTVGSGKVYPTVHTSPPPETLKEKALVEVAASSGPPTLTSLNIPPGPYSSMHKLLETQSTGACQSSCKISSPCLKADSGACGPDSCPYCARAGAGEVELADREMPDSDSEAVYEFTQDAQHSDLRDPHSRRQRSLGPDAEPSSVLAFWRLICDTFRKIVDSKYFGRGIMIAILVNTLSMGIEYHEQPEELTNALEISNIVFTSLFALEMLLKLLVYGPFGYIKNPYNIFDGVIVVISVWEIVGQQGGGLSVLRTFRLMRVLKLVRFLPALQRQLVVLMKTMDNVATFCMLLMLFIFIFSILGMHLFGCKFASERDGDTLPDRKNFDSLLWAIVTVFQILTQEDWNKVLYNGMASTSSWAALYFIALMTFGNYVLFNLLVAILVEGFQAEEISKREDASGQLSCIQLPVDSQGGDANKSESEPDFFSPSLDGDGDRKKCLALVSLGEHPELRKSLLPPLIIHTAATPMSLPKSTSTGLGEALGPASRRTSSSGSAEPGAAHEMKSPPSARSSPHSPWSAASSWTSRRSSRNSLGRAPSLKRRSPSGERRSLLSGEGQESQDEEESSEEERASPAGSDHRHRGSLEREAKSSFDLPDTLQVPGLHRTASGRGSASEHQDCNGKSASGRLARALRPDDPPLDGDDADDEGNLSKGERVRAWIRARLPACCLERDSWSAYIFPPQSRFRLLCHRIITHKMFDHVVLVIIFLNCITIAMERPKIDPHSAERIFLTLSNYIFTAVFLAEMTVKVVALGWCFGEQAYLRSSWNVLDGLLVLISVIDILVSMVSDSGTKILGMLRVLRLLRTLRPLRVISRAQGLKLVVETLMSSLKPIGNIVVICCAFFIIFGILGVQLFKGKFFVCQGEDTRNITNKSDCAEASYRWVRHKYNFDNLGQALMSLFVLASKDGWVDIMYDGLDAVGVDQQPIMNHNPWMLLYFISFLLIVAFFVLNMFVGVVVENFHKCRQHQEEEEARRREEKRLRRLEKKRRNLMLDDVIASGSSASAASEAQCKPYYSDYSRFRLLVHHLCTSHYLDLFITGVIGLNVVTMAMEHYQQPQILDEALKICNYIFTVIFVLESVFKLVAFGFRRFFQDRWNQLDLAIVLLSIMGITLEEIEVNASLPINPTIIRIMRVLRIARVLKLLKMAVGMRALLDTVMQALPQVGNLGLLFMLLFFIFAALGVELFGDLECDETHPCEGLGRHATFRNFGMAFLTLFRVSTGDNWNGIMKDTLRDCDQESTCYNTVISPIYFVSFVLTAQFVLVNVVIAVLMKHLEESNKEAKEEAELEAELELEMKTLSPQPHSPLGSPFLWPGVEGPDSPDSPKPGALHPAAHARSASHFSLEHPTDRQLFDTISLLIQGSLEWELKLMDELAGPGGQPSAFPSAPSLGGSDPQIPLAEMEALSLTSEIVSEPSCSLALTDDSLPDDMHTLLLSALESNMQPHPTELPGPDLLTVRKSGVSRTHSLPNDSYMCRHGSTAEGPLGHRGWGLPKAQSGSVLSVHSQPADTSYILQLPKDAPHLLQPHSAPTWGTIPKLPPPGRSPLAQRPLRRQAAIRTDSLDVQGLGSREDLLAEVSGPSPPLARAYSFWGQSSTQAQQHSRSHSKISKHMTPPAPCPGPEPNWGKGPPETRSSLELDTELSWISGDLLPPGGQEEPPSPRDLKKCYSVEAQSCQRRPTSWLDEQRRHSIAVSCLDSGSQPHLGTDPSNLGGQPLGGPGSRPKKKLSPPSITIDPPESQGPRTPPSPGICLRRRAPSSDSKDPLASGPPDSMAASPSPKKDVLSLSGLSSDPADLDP

[3] = target: Voltage-dependent T-type calcium channel subunit alpha-1H (Homo sapiens, UniProt O95180); experiment: Channel blocking activity at recombinant human CaV 3.2 channel expressed in HEK293 cells assessed as inhibition of Ca2+ flux preincubated for 3 mins followed by CaCl2 addition by fluo-4 dye-based FLIPR assay; type: cell-based
[4] = target: Voltage-dependent T-type calcium channel subunit alpha-1I (Homo sapiens, UniProt Q9P0X4); experiment: Channel blocking activity at recombinant human CaV 3.3 channel expressed in HEK293 cells assessed as inhibition of Ca2+ flux preincubated for 3 mins followed by CaCl2 addition by fluo-4 dye-based FLIPR assay; type: cell-based
Chain of Voltage-dependent T-type calcium channel subunit alpha-1I (Q9P0X4 whole entry): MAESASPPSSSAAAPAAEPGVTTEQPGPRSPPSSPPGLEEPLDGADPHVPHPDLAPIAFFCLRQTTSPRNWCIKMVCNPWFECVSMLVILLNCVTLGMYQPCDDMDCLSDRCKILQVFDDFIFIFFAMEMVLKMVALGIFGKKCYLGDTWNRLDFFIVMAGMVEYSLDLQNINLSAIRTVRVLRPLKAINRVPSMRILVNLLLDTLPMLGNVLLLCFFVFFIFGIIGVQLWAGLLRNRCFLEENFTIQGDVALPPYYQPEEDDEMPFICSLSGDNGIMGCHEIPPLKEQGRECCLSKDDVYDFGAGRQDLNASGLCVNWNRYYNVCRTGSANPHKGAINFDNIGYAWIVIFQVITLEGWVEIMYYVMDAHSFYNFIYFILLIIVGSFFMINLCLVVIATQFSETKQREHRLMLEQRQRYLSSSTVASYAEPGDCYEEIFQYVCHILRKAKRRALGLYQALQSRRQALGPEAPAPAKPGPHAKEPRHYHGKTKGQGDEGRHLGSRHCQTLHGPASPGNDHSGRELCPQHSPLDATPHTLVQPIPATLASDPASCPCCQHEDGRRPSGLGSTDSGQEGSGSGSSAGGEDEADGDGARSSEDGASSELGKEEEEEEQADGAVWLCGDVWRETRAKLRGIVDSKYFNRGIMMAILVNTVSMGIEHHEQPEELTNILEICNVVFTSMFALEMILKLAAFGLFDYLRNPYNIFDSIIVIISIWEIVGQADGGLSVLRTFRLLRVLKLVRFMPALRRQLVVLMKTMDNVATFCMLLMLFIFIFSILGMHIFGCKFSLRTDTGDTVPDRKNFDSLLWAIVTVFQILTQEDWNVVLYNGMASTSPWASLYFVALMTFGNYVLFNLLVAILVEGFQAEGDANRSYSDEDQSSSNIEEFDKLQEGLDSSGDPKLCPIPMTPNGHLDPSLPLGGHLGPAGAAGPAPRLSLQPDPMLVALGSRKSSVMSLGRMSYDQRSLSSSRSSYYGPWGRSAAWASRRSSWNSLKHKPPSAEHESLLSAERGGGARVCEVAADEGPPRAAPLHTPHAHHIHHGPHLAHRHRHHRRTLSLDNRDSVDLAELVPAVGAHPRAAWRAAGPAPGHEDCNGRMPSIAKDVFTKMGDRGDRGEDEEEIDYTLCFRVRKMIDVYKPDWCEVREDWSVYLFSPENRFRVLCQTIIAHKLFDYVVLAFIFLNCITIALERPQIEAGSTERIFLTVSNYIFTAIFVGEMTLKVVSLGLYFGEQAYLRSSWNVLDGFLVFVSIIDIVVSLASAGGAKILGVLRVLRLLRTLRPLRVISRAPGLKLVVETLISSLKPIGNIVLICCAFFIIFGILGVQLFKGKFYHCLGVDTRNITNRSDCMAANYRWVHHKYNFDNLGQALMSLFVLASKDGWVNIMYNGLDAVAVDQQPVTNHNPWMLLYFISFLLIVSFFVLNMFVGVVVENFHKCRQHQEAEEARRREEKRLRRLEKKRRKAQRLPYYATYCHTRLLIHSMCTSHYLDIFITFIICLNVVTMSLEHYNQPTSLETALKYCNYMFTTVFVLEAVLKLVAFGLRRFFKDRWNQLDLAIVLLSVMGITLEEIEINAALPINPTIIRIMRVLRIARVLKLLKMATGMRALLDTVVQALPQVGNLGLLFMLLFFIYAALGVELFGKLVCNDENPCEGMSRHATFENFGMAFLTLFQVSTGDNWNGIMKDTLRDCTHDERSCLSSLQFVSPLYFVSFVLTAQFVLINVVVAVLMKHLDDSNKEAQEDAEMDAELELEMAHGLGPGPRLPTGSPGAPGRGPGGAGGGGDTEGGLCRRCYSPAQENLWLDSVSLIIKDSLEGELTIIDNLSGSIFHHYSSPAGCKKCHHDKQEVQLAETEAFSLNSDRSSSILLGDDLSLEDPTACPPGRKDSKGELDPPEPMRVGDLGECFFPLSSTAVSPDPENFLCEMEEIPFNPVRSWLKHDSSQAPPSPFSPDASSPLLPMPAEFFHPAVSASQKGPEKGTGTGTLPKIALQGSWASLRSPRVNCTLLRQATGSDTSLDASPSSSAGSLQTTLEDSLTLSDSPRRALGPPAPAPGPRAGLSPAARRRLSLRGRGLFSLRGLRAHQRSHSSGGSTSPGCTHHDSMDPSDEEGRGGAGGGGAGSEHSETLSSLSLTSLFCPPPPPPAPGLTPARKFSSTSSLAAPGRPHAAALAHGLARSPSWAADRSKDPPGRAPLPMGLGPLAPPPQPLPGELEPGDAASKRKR

[5] = Intrinsic clearance in human liver microsomes at 1 uM up to 15 mins in presence of NADPH by LC-MS-MS analysis; type: ADME; settings: read-out: CLH
[6] = Intrinsic clearance in Wistar rat liver microsomes at 1 uM up to 15 mins in presence of NADPH by LC-MS-MS analysis; type: ADME; settings: read-out: CLH
MDR1 [7] = experiment: Apparent permeability from apical side to basolateral side in MDCK1 cells expressing MDR1; type: ADME, cell-based, Canis lupus familiaris; settings: dog, MDCK-MDR1
MDR1 [8] = experiment: Apparent permeability from basolateral side to apical side in MDCK1 cells expressing MDR1; type: ADME, cell-based, Canis lupus familiaris; settings: dog, MDCK-MDR1
MDR1 [9] = experiment: Efflux ratio for apparent permeability in MDCK1 cells expressing MDR1; type: ADME, cell-based, Canis lupus familiaris; settings: dog, MDCK-MDR1
[10] = Dissociation constant, pKa of compound; type: physicochemical

SMILES	solubility [1]	IC50 [2]	IC50 [3]	IC50 [4]	microsomal CLint at 1 µM [5]	microsomal CLint at 1 µM [6]	Papp A→B (MDR1 [7])	Papp B→A (MDR1 [8])	efflux ratio (MDR1 [9])	pKa [10]
C[C@@H]1CN(CC2CCCCO2)c2ccccc2[C@H](C)N1C(=O)Nc1cccnc1 (mixture of isomers)	248 µg/mL	875 nM	2670 nM	243 nM	720 µL/min/mg	–	–	–	–	–
C[C@@H]1CN(Cc2ccccc2)c2ccccc2[C@H](C)N1C(=O)Nc1cccnc1 (racemic)	21 to 39 µg/mL (≈ 54.3 to 101 µM)	42 nM	61 nM	14 nM	> 1250 µL/min/mg	–	–	–	–	–
C[C@@H]1CN(Cc2ccccc2)c2ccccc2[C@H](C)N1C(=O)NC1COC1 (racemic)	148 µg/mL (≈ 405 µM)	26 nM	61 nM	12 nM	539 µL/min/mg	–	–	–	–	–
C[C@@H]1CN(Cc2cnc(C(F)(F)F)s2)c2ccccc2[C@H](C)N1C(=O)CCc1cccnc1 (racemic)	–	40 nM	30 nM	13 nM	332 µL/min/mg	–	–	–	–	–
C[C@@H]1CN(Cc2ccccc2)c2nc(F)ccc2[C@H](C)N1C(=O)NCc1ccccc1 (racemic)	–	7 nM	6 nM	4 nM	> 1250 µL/min/mg	–	–	–	–	–
C[C@@H]1CN(Cc2ccccc2)c2c(F)cccc2[C@H](C)N1C(=O)Nc1cccnc1 (racemic)	–	178 nM	205 nM	17 nM	720 µL/min/mg	–	–	–	–	–
C[C@@H]1CN(Cc2ccccc2)c2cccc(F)c2[C@H](C)N1C(=O)CCc1cccnc1 (racemic)	–	47 nM	52 nM	17 nM	562 µL/min/mg	–	–	–	–	–
C[C@@H]1CN(Cc2ccccc2)c2ccc(F)cc2[C@H](C)N1C(=O)Nc1cccnc1 (racemic)	–	68 nM	112 nM	8 nM	> 1250 µL/min/mg	–	–	–	–	–
C[C@@H]1CN(Cc2ccccc2)c2nc(Cl)ccc2[C@H](C)N1C(=O)NCc1ccccc1 (racemic)	–	16 nM	36 nM	22 nM	1000 µL/min/mg	–	–	–	–	–
CC(C)CCN1C[C@@H](C)N(C(=O)CCc2cccnc2)[C@@H](C)c2ccccc21 (racemic)	–	29 nM	62 nM	13 nM	412 µL/min/mg	–	–	–	–	–
C[C@@H]1CN(Cc2ccccc2)c2nc(C(F)(F)F)ccc2[C@H](C)N1C(=O)NCc1ccccc1 (racemic)	–	57 nM	104 nM	281 nM	531 µL/min/mg	–	–	–	–	–
COc1ccc2c(c1)[C@H](C)N(C(=O)Nc1cccnc1)[C@H](C)CN2Cc1ccccc1 (racemic)	–	390 nM	530 nM	100 nM	521 µL/min/mg	–	–	–	–	–
C[C@@H]1CN(Cc2ccccc2)c2ncc(F)cc2[C@H](C)N1C(=O)NCc1ccccc1 (racemic)	–	65 nM	95 nM	15 nM	837 µL/min/mg	–	–	–	–	–
C[C@@H]1CN(Cc2ccc(C(F)(F)F)o2)c2cnccc2[C@H](C)N1C(=O)NCc1ccccc1 (racemic)	–	37 nM	44 nM	10 nM	247 µL/min/mg	1180 µL/min/mg	–	–	–	–
C[C@@H]1CN(Cc2cnc(C(F)(F)F)s2)c2cccc(F)c2[C@H](C)N1C(=O)CCc1cccnc1 (racemic)	–	115 nM	93 nM	20 nM	193 µL/min/mg	–	–	–	–	–
C[C@@H]1CN(Cc2ccccc2)c2cncc(F)c2[C@H](C)N1C(=O)NCc1ccccc1 (racemic)	–	140 nM	72 nM	9 nM	185 µL/min/mg	–	26.3 ×10⁻⁶ cm/s	61 ×10⁻⁶ cm/s	2.3	4.2
C[C@@H]1CN(Cc2cccc(F)c2F)c2cnccc2[C@H](C)N1C(=O)NCc1ccccc1 (racemic)	–	38 nM	72 nM	13 nM	212 µL/min/mg	–	–	–	–	–
C[C@@H]1CN(Cc2ccccc2)c2cc(F)cc(F)c2[C@H](C)N1C(=O)Nc1cccnc1 (racemic)	–	12 nM	22 nM	8 nM	873 µL/min/mg	–	–	–	–	–
C[C@@H]1CN(Cc2ccccc2)c2ccccc2[C@H](C)N1C(=O)Cc1cncs1 (racemic)	21 to 39 µg/mL (≈ 53.6 to 99.6 µM)	34 nM	55 nM	6 nM	> 1250 µL/min/mg	–	–	–	–	–
COc1ccc(CNC(=O)N2[C@H](C)CN(Cc3ccccc3)c3cnccc3[C@@H]2C)cc1 (racemic)	–	79 nM	48 nM	12 nM	189 µL/min/mg	1140 µL/min/mg	–	–	–	–
C[C@@H]1CN(Cc2ccccc2F)c2cnccc2[C@H](C)N1C(=O)NCc1ccccc1 (racemic)	–	47 nM	95 nM	31 nM	179 µL/min/mg	> 1250 µL/min/mg	–	–	–	–
C[C@@H]1CN(Cc2ccccc2)c2cc(OCC(F)(F)F)ccc2[C@H](C)N1C(=O)Nc1cccnc1 (racemic)	–	187 nM	790 nM	3560 nM	> 1250 µL/min/mg	–	–	–	–	–
C[C@@H]1CN(CCOC(C)(C)C)c2ccccc2[C@H](C)N1C(=O)Nc1cccnc1 (racemic)	81 µg/mL (≈ 204 µM)	108 nM	91 nM	23 nM	1230 µL/min/mg	–	–	–	–	–

The remaining lines, values ahead:

solubility [1]	IC50 [2]	IC50 [3]	IC50 [4]	microsomal CLint at 1 µM [5]	microsomal CLint at 1 µM [6]	Papp A→B (MDR1 [7])	Papp B→A (MDR1 [8])	efflux ratio (MDR1 [9])	pKa [10]	SMILES
–	18 nM	28 nM	33 nM	1240 µL/min/mg	–	–	–	–	–	Cc1ccc2c(n1)N(Cc1ccccc1)C[C@@H](C)N(C(=O)NCc1ccccc1)[C@H]2C (racemic)
–	360 nM	860 nM	306 nM	93 µL/min/mg	562 µL/min/mg	–	–	–	–	C[C@@H]1CN(Cc2ccccc2)c2cnccc2[C@H](C)N1C(=O)Nc1cccnc1 (racemic)
–	441 nM	815 nM	148 nM	59 µL/min/mg	855 µL/min/mg	–	–	–	–	[2H]C([2H])(c1ccccc1)N1C[C@@H](C)N(C(=O)Nc2cccnc2)[C@@H](C)c2ccncc21 (racemic)
–	27 nM	25 nM	4 nM	1110 µL/min/mg	–	–	–	–	–	[2H]C([2H])(c1ccccc1)N1C[C@@H](C)N(C(=O)Nc2cccnc2)[C@@H](C)c2ccccc21 (racemic)
–	45 nM	66 nM	52 nM	357 µL/min/mg	–	–	–	–	–	CC(C)CCN1C[C@@H](C)N(C(=O)CCc2cccnc2)[C@@H](C)c2c(F)cccc21 (racemic)
–	40 nM	59 nM	13 nM	375 µL/min/mg	–	–	–	–	–	C[C@@H]1CN(Cc2ccccc2)c2cccc(F)c2[C@H](C)N1C(=O)NC1COC1 (racemic)
–	78 nM	68 nM	46 nM	409 µL/min/mg	–	–	–	–	–	C[C@@H]1CN(Cc2ccccc2)c2ncc(Cl)cc2[C@H](C)N1C(=O)NCc1ccccc1 (racemic)
–	6 nM	12 nM	4 nM	> 1250 µL/min/mg	–	–	–	–	–	C[C@@H]1CN(Cc2ccccc2)c2cc(F)ccc2[C@H](C)N1C(=O)Nc1cccnc1 (racemic)
–	13 nM	24 nM	11 nM	119 µL/min/mg	447 µL/min/mg	–	–	–	–	COc1ccc(CNC(=O)N2[C@H](C)CN(Cc3ccc(C(F)(F)F)o3)c3cnccc3[C@@H]2C)cc1 (racemic)
–	15 nM	31 nM	8 nM	1060 µL/min/mg	–	–	–	–	–	C[C@@H]1CN(Cc2ccccc2)c2ncccc2[C@H](C)N1C(=O)NCc1ccccc1 (racemic)
–	582 nM	860 nM	308 nM	418 µL/min/mg	–	–	–	–	–	C[C@@H]1CN(Cc2ccccc2)c2cc(C#N)ccc2[C@H](C)N1C(=O)Nc1cccnc1 (racemic)
–	627 nM	1600 nM	610 nM	649 µL/min/mg	–	–	–	–	–	COc1ccc2c(c1)N(Cc1ccccc1)C[C@@H](C)N(C(=O)Nc1cccnc1)[C@H]2C (racemic)
–	> 10000 nM	> 10700 nM	> 8600 nM	59 µL/min/mg	–	–	–	–	–	C[C@@H]1CNc2ccccc2[C@H](C)N1C(=O)NCc1ccccc1 (racemic)
–	196 nM	225 nM	25 nM	907 µL/min/mg	> 1250 µL/min/mg	–	–	–	–	C[C@@H]1CN(Cc2ccccc2)c2cnccc2[C@H](C)N1C(=O)CCc1ccc(F)cc1 (racemic)
–	256 nM	209 nM	225 nM	> 1250 µL/min/mg	–	–	–	–	–	C[C@@H]1CN(c2ccccc2)c2ccccc2[C@H](C)N1C(=O)NCc1ccccc1 (racemic)
21 to 39 µg/mL (≈ 55.3 to 103 µM)	26 nM	58 nM	9 nM	> 1250 µL/min/mg	–	–	–	–	–	C[C@@H]1CN(Cc2ccccc2)c2ccccc2[C@H](C)N1C(=O)N1CCOCC1 (racemic)
–	260 nM	230 nM	15 nM	186 µL/min/mg	> 1250 µL/min/mg	–	–	–	–	[2H]C([2H])(c1ccccc1)N1C[C@@H](C)N(C(=O)NCc2ccccc2)[C@@H](C)c2ccncc21 (racemic)
–	20 nM	52 nM	10 nM	628 µL/min/mg	–	–	–	–	–	C[C@@H]1CN(Cc2ccccc2)c2cccc(F)c2[C@H](C)N1C(=O)Nc1cccnc1 (racemic)
–	220 nM	224 nM	55 nM	> 1250 µL/min/mg	–	–	–	–	–	C[C@@H]1CN(Cc2ccccc2)c2cnc(Cl)cc2[C@H](C)N1C(=O)NCc1ccccc1 (racemic)
